From patent publication US5994375A, “Benzamidine derivatives substituted by amino acid and hydroxy acid derivatives and their use as anti-coagulants” (Berlex Laboratories, Inc., priority 1996, dated 1999)
Square brackets hold non-standard residues; d marks the D form. Peptide text beside a SMILES is read from it. * marks the point of attachment. pNA = O=[N+]([O-])c1ccc(N*)cc1

Legend:
[1] = molecular target: T1, Human tissue plasminogen activator (tPA) (Two chains, Sigma) (Homo sapiens, UniProt P00750); assay: In vitro chromogenic assay for tissue plasminogen activator (cleavage of peptide p-nitroanilide S2288); format: biochemical; conditions: substrate concentration stated equal to its Km under the assay conditions; 10 nM tPA, pH 7.5, ambient temperature
T1 construct: purchased Sigma
Experimental: (§1) The activities were determined as an initial rate of cleavage of the peptide p-nitroanilide by the enzyme. The cleavage product, p-nitroaniline, absorbs at 405 nm with a molar extinction coefficient of 9920 M^-1 cm^-1.
(§2) 50 mM TrisHCl, 150 mM NaCl, 2.5 mM CaCl2, and 0.1% polyethylene glycol 6000, pH 7.5.
3. Human tissue plasminogen activator (tPA) (Two chains, Sigma) stock solution: 1 mg/mL, stored at -80° C. (working solution (2×): 1361 ng/mL in assay buffer, prepare prior to use).
3. S2288 (tPA assay) stock solution: 10 mM in dH2 O, stored at 4° C. (working solution (4×): 1484 μM in assay buffer).
(§3) Assays were performed in 96-well microtiter plates in a total volume of 200 μl. […] Concentrations of the standard inhibitor compound in the assay were from 5 μM to 0.021 μM in 1 to 3 dilution. Concentration of the test compounds in the assay typically were from 10 μM to 0.041 μM in 1 to 3 dilution. For potent test compounds, the concentrations used in the factor Xa assay were further diluted 100 fold (100 nM to […]) or 1000 fold (10 nM to 0.041 nM). All substrate concentrations used are equal to their Km values under the present assay conditions. Assays were performed at ambient temperature. […]
(§4) The enzyme kinetics were measured at 405 nm at 10 seconds intervals for five minutes in a THERMOmax plate reader at ambient temperature.

Human thrombin = molecular target: T2, Human thrombin (Homo sapiens, UniProt P00734); assay: In vitro chromogenic assay for thrombin (cleavage of peptide p-nitroanilide S2302); format: biochemical; conditions: substrate concentration stated equal to its Km under the assay conditions; 20 nM thrombin, pH 7.5, ambient temperature
T2 construct: Human thrombin stock solution; purchased Enzyme Research Lab
Experimental: as §1, §2
2. Human thrombin stock solution: Stored at -80° C. (working solution (2×): 1200 ng/mL or 40 nM in assay buffer, prepare prior to use).
2. S2302 (Thrombin assay) stock solution: 10 mM in dH2 O, stored at 4° C. (working solution (4×): 1200 μM in assay buffer).
as §3, with “nM).” for “nM). All substrate concentrations used are equal to their Km values under the present assay conditions. Assays were performed at ambient temperature.”
as §4
Enzyme rates were calculated as mOD/min based on the first two minutes readings. The IC50 values were determined by fitting the data to the log-logit equation (linear) or the Morrison equation (non-linear) with an EXCEL spread-sheet. […]

T1 sequence (P00750 311-562 limits assumed): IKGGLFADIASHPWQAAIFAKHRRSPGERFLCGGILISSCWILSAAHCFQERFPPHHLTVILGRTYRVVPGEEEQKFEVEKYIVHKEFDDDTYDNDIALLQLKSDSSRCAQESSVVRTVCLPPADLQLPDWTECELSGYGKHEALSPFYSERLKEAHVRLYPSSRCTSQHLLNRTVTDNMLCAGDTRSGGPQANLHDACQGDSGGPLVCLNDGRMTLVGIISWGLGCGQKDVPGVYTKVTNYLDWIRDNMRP
T1 sequence (P00750 36-310 partner limits assumed): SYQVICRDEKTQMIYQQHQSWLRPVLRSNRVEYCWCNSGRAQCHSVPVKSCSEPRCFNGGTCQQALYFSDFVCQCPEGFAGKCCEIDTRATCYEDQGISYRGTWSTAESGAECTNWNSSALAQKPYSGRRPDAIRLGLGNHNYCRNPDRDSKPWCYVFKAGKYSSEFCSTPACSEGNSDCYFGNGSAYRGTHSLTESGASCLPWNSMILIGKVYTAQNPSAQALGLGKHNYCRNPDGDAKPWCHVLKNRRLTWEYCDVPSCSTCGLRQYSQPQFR

Km [1] [µM] | Km (Human thrombin) [µM] | SMILES
371 | – | CC[C@@H](C)[C@@H](N)C(=O)N1CCC[C@H]1C(=O)N[C@@H](CCCN=C(N)N)C(=O)Nc1ccc([N+](=O)[O-])cc1 [Example S2288] (H-[dI]-Pro-Arg-pNA)
– | 300 | N=C(N)NCCC[C@H](NC(=O)[C@H](Cc1ccccc1)NC(=O)[C@H]1CCCN1)C(=O)Nc1ccc([N+](=O)[O-])cc1 [Example S2302] (H-[dP]-Phe-Arg-pNA)
